Source: ChEMBL document CHEMBL1926605, “Synthesis, structure-activity relationships, and mechanism of action of anti-HIV-1 lamellarin α 20-sulfate analogues” (Bioorg Med Chem, 2011)
pIC50: −log10 of the molar value. Calls of active or inactive are those of the source. The calls are words filed in the database; no cut-off is given here.

What was measured:
[1] = tested on: Human immunodeficiency virus 1; test: Antiviral activity against HIV1 in COS7 cells expressing HXB2 Env, R8.91, and pTY-EFnLacZ assessed as reduction of viral vector infection into human HeLa cells expressing CD4 at 100 uM after 2 days using 5-bromo-4-chloro-3-indolyl-beta-D-galactopyranoside staining; format: functional, organism-based
[2] = tested on: Human immunodeficiency virus 1; test: Antiviral activity against LacZ-containing HIV1 in COS7 cells expressing HXB2 Env, R8.91, and pTY-EFnLacZ assessed as reduction of viral vector infection into human HeLa cells expressing CD4 after 2 days using 5-bromo-4-chloro-3-indolyl-beta-D-galactopyranoside staining; format: functional, organism-based; conditions: Human immunodeficiency virus 1, HeLa, 48 h
HeLa [3] = test: Cytotoxicity against human HeLa cells expressing CD4 after 24 hrs by WST-1 assay; format: cell-based
HeLa [4] = test: Cellular uptake in human HeLa cells expressing CD4 at 100 uM after 24 hrs by confocal laser scanning microscopy analysis; format: ADME, cell-based
HeLa [5] = test: Cellular uptake in human HeLa cells expressing CD4 at 100 uM after 24 hrs by confocal laser scanning microscopy analysis in presence of methanol; format: ADME, cell-based
[6] = tested on: Human immunodeficiency virus 1; test: Antiviral activity against HIV1 infected in MAGIC5 cells co-cultured with Cos7 cells assessed as inhibition of viral envelope mediated cell-cell fusion at 100 uM after 24 hrs by beta galactosidase assay; format: functional, organism-based; conditions: COS-7
HeLa [7] = test: Cytotoxicity against human HeLa cells by MTT assay; format: cell-based

| SMILES | Activity [1] | pIC50 [2] | pIC50 (HeLa [3]) | Drug uptake (HeLa [4]) | Drug uptake (HeLa [5]) | inhibition [6] | Activity (HeLa [7]) |
| --- | --- | --- | --- | --- | --- | --- | --- |
| COc1ccc(-c2c3n(c4c(=O)oc5cc(OS(=O)(=O)[O-])c(OC)cc5c24)CCc2cc(OC)c(OC)cc2-3)cc1O.[Na+] | Active | 4.82 | < 4.00 | Not Active | Active | Active |  |
| COc1ccc(-c2c3c4cc(OC)c(OS(=O)(=O)[O-])cc4oc(=O)c3n3ccc4cc(OC)c(OC)cc4c23)cc1O.[Na+] | Active | 4.89 | < 4.00 | Not Active | Active | Active | 274 µM |
| COc1ccc(-c2cn(CCc3ccc(OC)c(OC)c3)c3c(=O)oc4cc(OS(=O)(=O)O)c(OC)cc4c23)cc1O |  | < 4.00 |  |  |  | inactive |  |
| COc1cc2c(cc1O)oc(=O)c1c2c(-c2ccc(OC)c(OS(=O)(=O)[O-])c2)c2c3cc(OC)c(OC)cc3ccn21.[Na+] | Active | 4.84 | < 4.00 | Not Active | Active | Active |  |
| COc1ccc(-c2c3c4cc(OC)c(O)cc4oc(=O)c3n3ccc4cc(OC)c(OC)cc4c23)cc1O |  | < 4.00 |  | Active | Active |  |  |
| COc1ccc(-c2c3c4cc(OC)c(OS(=O)(=O)[O-])cc4oc(=O)c3n3ccc4cc(OS(=O)(=O)[O-])c(OC)cc4c23)cc1OS(=O)(=O)[O-].[Na+].[Na+].[Na+] | Active | 4.68 | < 4.00 | Not Active | Active | Active |  |
| COc1cc2ccn3c(c(-c4ccc(OC)c(OS(=O)(=O)[O-])c4)c4c5cc(OC)c(OS(=O)(=O)[O-])cc5oc(=O)c43)c2cc1OC.[Na+].[Na+] | Active | 4.82 | < 4.00 | Not Active | Active | Active |  |
